Assay results from patent US20260098061A1, “EPHA2-BINDING PENDING PEPTIDE AND COMPOSITION COMPRISING SAME” (PeptiDream Inc., priority 2022, published 2026).
Numbered stars: 1 amine (or outer) side, 2 acyl side, 3 side chain; on linkers, the order of the positions; unused ones are H or OH. Bridge positions count the residues as written; N and C are the ends. Square brackets hold non-standard residues; d marks the D form. Side chains are listed from the residue outwards. Peptide text beside a SMILES is read from it. * marks the point of attachment. NH(1-deoxy-D-glucityl) = OC[C@@H](O)[C@@H](O)[C@H](O)[C@@H](O)CN*; X1 = CC(C)C[C@H](CC(=O)[C@H](CC(N)=O)N[*:1])C(=O)[*:2]; Trp(1-Me,7-Cl) = Cn1cc(C[C@H](N)C(=O)O)c2cccc(Cl)c21; Ala(2-NH2-4-pyridyl) = Nc1cc(C[C@H](N)C(=O)O)ccn1; dPhe(3-CONH2) = NC(=O)c1cccc(C[C@@H](N)C(=O)O)c1; X6 = Cn1cc(C[C@H](N[*:1])C(=O)[*:2])c2cccnc21; Piperazinyl(4-CH2COOH) = O=C(O)CN1CCN(*)CC1; Trp(1-Me) = Cn1cc(C[C@H](N)C(=O)O)c2ccccc21; NMe3Pal = CN[C@@H](Cc1cccnc1)C(=O)O; NMeF = CN[C@@H](Cc1ccccc1)C(=O)O; hCit = NC(=O)NCCCC[C@H](N)C(=O)O; 4Pal = N[C@@H](Cc1ccncc1)C(=O)O; Gly(cBu) = N[C@H](C(=O)O)C1CCC1; NMeE = CN[C@@H](CCC(=O)O)C(=O)O; Aad = N[C@@H](CCCC(=O)O)C(=O)O; NMeN = CN[C@@H](CC(N)=O)C(=O)O; Chg = N[C@H](C(=O)O)C1CCCCC1; NMeA = CN[C@@H](C)C(=O)O; CO = O=C([*:1])[*:2]; βAla = NCCC(=O)O

Target: T1, Recombinant Human EphA2 Fc Protein (Homo sapiens, UniProt P29317)
T1 construct: purchased Elabscience
Experiment: SPR interaction analysis (Biacore T200), kinetics of peptides against EphA2
Format: binding
Settings: Recombinant Human EphA2 Fc Protein captured by Human Antibody Capture kit; single-cycle kinetics; 25° C.; HBS-P+ buffer with 1% DMSO
Description: Example 14 Interaction Analysis by SPR was Performed Using Biacore (Cytiva)
SPR assay was performed using Biacore T200 (Cytiva).
The HBS-P+ buffer (10 mM HEPES (pH7.4), 150 mM NaCl, 0.05% (v/V) Surfactant P20) containing 1% DMSO was used as running buffer. Recombinant Human EphA2 Fc Protein (Fc tag, Elabscience) was captured by Human Antibody Capture kit (Cytiva). Peptide samples in DMSO were diluted with running buffer, and prepared five serial dilutions. Using these serial dilutions, kinetics of peptides against EphA2 was measured at a flow rate of 30 mL/min at 25° C. The method adopted for sample measurement was a single-cycle kinetics method. The analysis was conducted using the evaluation software 3.0 provided with Biacore T200. Kinetics fitting was done on the difference data obtained by subtracting the baseline data from sample measurement data. KD values were calculated based on the association rate constant (ka) and dissociation rate constant (kd).

Row | Structure (SMILES) | Kd
1 | CC(=O)NCCCC[C@@H](NC(=O)CCNC(=O)[C@@H]1CSCC(=O)N[C@H](C)C(=O)N(C)[C@@H](Cc2cccnc2)C(=O)N[C@@H](CC(N)=O)C(=O)C[C@@H](CC(C)C)C(=O)N[C@@H](CCCC(=O)O)C(=O)N(C)[C@@H](Cc2ccccc2)C(=O)N[C@@H](Cc2cn(C)c3ccccc23)C(=O)N[C@@H](C(C)C)C(=O)N[C@@H](Cc2cn(C)c3ccccc23)C(=O)N[C@@H]([C@@H](C)O)C(=O)N[C@@H](CCC(=O)O)C(=O)N1)C(N)=O [PDC_EphA2-00008083, da-Me3Py-N-L-Hgl-MeF-W1Me-V-W1Me-T-E-C-bA-dkAc-NH2] ({CH2CO}-[dA][NMe3Pal][X1][Aad][NMeF][Trp(1-Me)]V[Trp(1-Me)]TEC[βAla][dK](Ac)-NH2; thioether N-11) | < 1 nM
2 | C[C@H]1NC(=O)CSC[C@@H](C(N)=O)NC(=O)[C@H](CCCC(N)=O)NC(=O)[C@H]([C@@H](C)O)NC(=O)[C@H](Cc2cn(C)c3ccccc23)NC(=O)[C@H](CCCCNC(=O)N2CCN(CC(=O)O)CC2)NC(=O)[C@H](Cc2cn(C)c3ccccc23)NC(=O)[C@H](CCC(=O)O)N(C)C(=O)[C@H](CCCC(=O)O)NC(=O)[C@H](C2CCC2)NC(=O)[C@H](CC(N)=O)NC(=O)[C@H](Cc2cccnc2)N(C)C1=O [PDC_EphA2-00010007, da-Me3Py-N-Cbg-Hgl-MeE-W1Me-KCOpipzaa-W1Me-T-Hgn-C-NH2] ({CH2CO}-[dA][NMe3Pal]N[Gly(cBu)][Aad][NMeE][Trp(1-Me)]K([CO-Piperazinyl(4-CH2COOH)])[Trp(1-Me)]T[Aad](NH2)C-NH2; thioether N-12) | < 1 nM
3 | CNC(=O)C[C@@H]1NC(=O)[C@H](C2CCCCC2)NC(=O)[C@H](CC(N)=O)NC(=O)[C@H](Cc2cccnc2)N(C)C(=O)[C@@H](C)NC(=O)CSC[C@@H](C(N)=O)NC(=O)[C@H](CCCC(N)=O)NC(=O)[C@H]([C@@H](C)O)NC(=O)[C@H](Cc2cn(C)c3ccccc23)NC(=O)[C@H](CCCCNC(=O)N2CCN(CC(=O)O)CC2)NC(=O)[C@H](Cc2cn(C)c3ccccc23)NC(=O)[C@H](Cc2ccccc2)N(C)C1=O [PDC_EphA2-00018536, da-Me3Py-N-Chg-Nmm-MeF-W1Me-KCOpipzaa-W1Me-T-Hgn-C-NH2] ({CH2CO}-[dA][NMe3Pal]N[Chg]D(NHMe)[NMeF][Trp(1-Me)]K([CO-Piperazinyl(4-CH2COOH)])[Trp(1-Me)]T[Aad](NH2)C-NH2; thioether N-12) | < 1 nM
4 | C[C@H]1NC(=O)CSC[C@@H](C(N)=O)NC(=O)[C@H](CCCC(N)=O)NC(=O)[C@H]([C@@H](C)O)NC(=O)[C@H](Cc2cn(C)c3ccccc23)NC(=O)[C@H](CCCCNC(=O)N2CCN(CC(=O)O)CC2)NC(=O)[C@H](Cc2cn(C)c3ncccc23)NC(=O)[C@H](Cc2ccccc2)N(C)C(=O)[C@H](CCCC(N)=O)NC(=O)[C@H](C2CCC2)NC(=O)[C@H](CC(N)=O)NC(=O)[C@H](Cc2cccnc2)N(C)C1=O [PDC_EphA2-00010002, da-Me3Py-N-Cbg-Hgn-MeF-W1Me7N-KCOpipzaa-W1Me-T-Hgn-C-NH2] ({CH2CO}-[dA][NMe3Pal]N[Gly(cBu)][Aad](NH2)[NMeF][X6]K([CO-Piperazinyl(4-CH2COOH)])[Trp(1-Me)]T[Aad](NH2)C-NH2; thioether N-12) | < 1 nM
5 | CC(C)C[C@@H]1NC(=O)[C@H](CC(N)=O)NC(=O)[C@H](Cc2ccccc2)N(C)C(=O)[C@@H](C)NC(=O)CSC[C@@H](C(N)=O)NC(=O)[C@H](CCC(=O)O)NC(=O)[C@H]([C@@H](C)O)NC(=O)[C@H](Cc2cn(C)c3ccccc23)NC(=O)[C@H](C(C)C)NC(=O)[C@H](Cc2cn(C)c3ccccc23)NC(=O)[C@H](Cc2ccccc2)N(C)C(=O)[C@H](CCCC(=O)O)NC1=O [PDC_EphA2-00001417, da-MeF-N-L-Hgl-MeF-W1Me-V-W1Me-T-E-C-NH2] ({CH2CO}-[dA][NMeF]NL[Aad][NMeF][Trp(1-Me)]V[Trp(1-Me)]TEC-NH2; thioether N-12) | 1 to 10 nM
6 | CC(C)C[C@@H]1NC(=O)[C@H](Cc2ccncc2)NC(=O)[C@H](Cc2ccccc2)NC(=O)CSC[C@@H](C(=O)NCC(N)=O)NC(=O)[C@H](Cc2cn(C)c3ccccc23)NC(=O)[C@H](Cc2ccccc2)N(C)C(=O)[C@H](Cc2cn(C)c3ccccc23)NC(=O)CNC1=O [PDC_EphA2-00020295-L092, F-4Py-L-G-W1Me-MeF-W1Me-C-G-NH2] ({CH2CO}-F[4Pal]LG[Trp(1-Me)][NMeF][Trp(1-Me)]CG-NH2; thioether N-8) | 100 to 400 nM
7 | CC(C)C[C@@H]1NC(=O)[C@H](Cc2ccnc(N)c2)NC(=O)[C@H](Cc2ccccc2)NC(=O)CSC[C@@H](C(N)=O)NC(=O)[C@H](Cc2cn(C)c3ccccc23)NC(=O)[C@H](Cc2ccccc2)N(C)C(=O)[C@H](Cc2cn(C)c3ccccc23)NC(=O)[C@H](C)N(C)C1=O [PDC_EphA2-00026479, F-4Py2NH2-L-MeA-W1Me-MeF-W1Me-C-NH2] ({CH2CO}-F[Ala(2-NH2-4-pyridyl)]L[NMeA][Trp(1-Me)][NMeF][Trp(1-Me)]C-NH2; thioether N-8) | 100 to 400 nM

Next, values leading:

Row | Kd | Structure (SMILES)
8 | < 1 nM | C[C@@H](O)[C@@H]1NC(=O)[C@H](Cc2cn(C)c3ccccc23)NC(=O)[C@H](CCCCNC(N)=O)NC(=O)[C@H](Cc2cn(C)c3c(Cl)cccc23)NC(=O)[C@H](CC(N)=O)N(C)C(=O)[C@H](CCCC(N)=O)NC(=O)[C@H](C2CCC2)NC(=O)[C@H](CC(N)=O)NC(=O)[C@H](Cc2cccnc2)N(C)C(=O)[C@@H](Cc2cccc(C(N)=O)c2)NC(=O)CSC[C@@H](C(N)=O)NC(=O)[C@H](CCCNC(=N)N)NC1=O [PDC_EphA2-00019428, df3CON-Me3Py-N-Cbg-Hgn-MeN-W1Me7Cl-Hcit-W1Me-T-R-C-NH2] ({CH2CO}-[dPhe(3-CONH2)][NMe3Pal]N[Gly(cBu)][Aad](NH2)[NMeN][Trp(1-Me,7-Cl)][hCit][Trp(1-Me)]TRC-NH2; thioether N-12)
9 | < 1 nM | CC(C)[C@@H]1NC(=O)[C@H](Cc2cn(C)c3ccccc23)NC(=O)[C@H](CC(N)=O)NC(=O)[C@H](CCCC(N)=O)NC(=O)[C@H](C2CCC2)NC(=O)[C@H](CC(N)=O)NC(=O)[C@H](Cc2cccnc2)N(C)C(=O)[C@@H](C)NC(=O)CSC[C@@H](C(N)=O)NC(=O)[C@H](CCCC(N)=O)NC(=O)[C@H]([C@@H](C)O)NC(=O)[C@H](Cc2cn(C)c3ccccc23)NC1=O [PDC_EphA2-00010010, da-Me3Py-N-Cbg-Hgn-N-W1Me-V-W1Me-T-Hgn-C-NH2] ({CH2CO}-[dA][NMe3Pal]N[Gly(cBu)][Aad](NH2)N[Trp(1-Me)]V[Trp(1-Me)]T[Aad](NH2)C-NH2; thioether N-12)
10 | < 1 nM | CC(C)C[C@@H]1NC(=O)[C@H](CC(N)=O)NC(=O)[C@H](Cc2cccnc2)N(C)C(=O)[C@@H](C)NC(=O)CSC[C@@H](C(N)=O)NC(=O)[C@H](CCCC(N)=O)NC(=O)[C@H]([C@@H](C)O)NC(=O)[C@H](Cc2cn(C)c3ccccc23)NC(=O)[C@H](CCCCNC(=O)N2CCN(CC(=O)O)CC2)NC(=O)[C@H](Cc2cn(C)c3ccccc23)NC(=O)[C@H](CCC(=O)O)N(C)C(=O)[C@H](CCCC(=O)O)NC1=O [PDC_EphA2-00010006, da-Me3Py-N-L-Hgl-MeE-W1Me-KCOpipzaa-W1Me-T-Hgn-C-NH2] ({CH2CO}-[dA][NMe3Pal]NL[Aad][NMeE][Trp(1-Me)]K([CO-Piperazinyl(4-CH2COOH)])[Trp(1-Me)]T[Aad](NH2)C-NH2; thioether N-12)
11 | < 1 nM | C[C@H]1NC(=O)CSC[C@@H](C(N)=O)NC(=O)[C@H](CCCC(N)=O)NC(=O)[C@H]([C@@H](C)O)NC(=O)[C@H](Cc2cn(C)c3ccccc23)NC(=O)[C@H](CCCCNC(=O)N2CCN(CC(=O)O)CC2)NC(=O)[C@H](Cc2cn(C)c3ccccc23)NC(=O)[C@H](CC(N)=O)NC(=O)[C@H](CCCC(N)=O)NC(=O)[C@H](C2CCC2)NC(=O)[C@H](CC(N)=O)NC(=O)[C@H](Cc2cccnc2)N(C)C1=O [PDC_EphA2-00010000, da-Me3Py-N-Cbg-Hgn-N-W1Me-KCOpipzaa-W1Me-T-Hgn-C-NH2] ({CH2CO}-[dA][NMe3Pal]N[Gly(cBu)][Aad](NH2)N[Trp(1-Me)]K([CO-Piperazinyl(4-CH2COOH)])[Trp(1-Me)]T[Aad](NH2)C-NH2; thioether N-12)
12 | < 1 nM | C[C@@H](O)[C@@H]1NC(=O)[C@H](Cc2cn(C)c3ccccc23)NC(=O)[C@H](CCC(=O)NC[C@H](O)[C@@H](O)[C@H](O)[C@H](O)CO)NC(=O)[C@H](Cc2cn(C)c3c(Cl)cccc23)NC(=O)[C@H](CCC(=O)O)N(C)C(=O)[C@H](CCCC(N)=O)NC(=O)[C@H](C2CCC2)NC(=O)[C@H](CC(N)=O)NC(=O)[C@H](Cc2cccnc2)N(C)C(=O)[C@@H](Cc2cccc(C(N)=O)c2)NC(=O)CSC[C@@H](C(N)=O)NC(=O)[C@H](CCCC(N)=O)NC1=O [PDC_EphA2-00019439, df3CON-Me3Py-N-Cbg-Hgn-MeE-W1Me7Cl-Qglucamine-W1Me-T-Hgn-C-NH2] ({CH2CO}-[dPhe(3-CONH2)][NMe3Pal]N[Gly(cBu)][Aad](NH2)[NMeE][Trp(1-Me,7-Cl)]E(NH(1-deoxy-D-glucityl))[Trp(1-Me)]T[Aad](NH2)C-NH2; thioether N-12)
13 | 1 to 10 nM | CC(C)C[C@@H]1NC(=O)[C@H](CC(N)=O)NC(=O)[C@H](Cc2cccnc2)N(C)C(=O)[C@@H](Cc2cccc(C(N)=O)c2)NC(=O)CSC[C@@H](C(N)=O)NC(=O)[C@H](Cc2cn(C)c3ccccc23)NC(=O)[C@H](CCCCNC(N)=O)NC(=O)[C@H](Cc2cn(C)c3c(Cl)cccc23)NC(=O)[C@H](Cc2cccnc2)N(C)C(=O)[C@H](CO)NC1=O [PDC_EphA2-00026601, df3CON-Me3Py-N-L-S-Me3Py-W1Me7Cl-Hcit-W1Me-C-NH2] ({CH2CO}-[dPhe(3-CONH2)][NMe3Pal]NLS[NMe3Pal][Trp(1-Me,7-Cl)][hCit][Trp(1-Me)]C-NH2; thioether N-10)
